The test system of the test is BDF1 mice, B16 melanoma ip, median survival T/C. Nature of the test: NCI In Vivo Anticancer Drug Screen. Data for tumor model B16 Melanoma (intraperitoneal) in B6D2F1 (BDF1) mice. Conditions: endpoint: median survival time, higher = longer survival. In outline:
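Vehicle-treated animals serve as the reference (C); treated animals (T) are scored for survival or tumor size after tumor transplantation.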

Where [1] appears, read: dose: 0.25 mg/kg/injection, schedule: Q01DX009 (ip), vehicle: saline with Tween-80.
Setting [2] is: dose: 0.5 mg/kg/injection, schedule: Q01DX009 (ip), vehicle: saline with Tween-80.
Setting [3] is: dose: 200.0 mg/kg/injection, schedule: Q01DX009 (ip), vehicle: saline with Tween-80.
Setting [4] is: dose: 50.0 mg/kg/injection, schedule: Q01DX009 (ip), vehicle: Klucel (hydroxypropylcellulose) (HPC).
The mark [5] stands for this setting: dose: 100.0 mg/kg/injection, schedule: Q01DX009 (ip), vehicle: Klucel (hydroxypropylcellulose) (HPC).

Structures are written as SMILES. “And” between values parts separate entries of the source, which are not always exact repeats. Equal entries are not always repeated. Toxic doses and inconclusive results are not listed.

In the case of `O=NN(CCCl)C(=O)NCCCl`, the T/C reads like this: under setting [1], 102 % of control; (dose: 0.5 mg/kg/injection, schedule: Q01DX009 (ip), vehicle: saline + alcohol) 105 % of control and 110 % of control; under setting [2], 109 % of control; (dose: 1.0 mg/kg/injection, schedule: Q01DX009 (ip), vehicle: saline + alcohol) 108 % of control and 115 % of control; (dose: 1.0 mg/kg/injection, schedule: Q01DX009 (ip), vehicle: saline with Tween-80) 110 % of control and 113 % of control (2×); (dose: 1.5 mg/kg/injection, schedule: Q01DX009 (ip), vehicle: alcohol) 113 % of control and 116 % of control. In addition, the T/C reads like this: (dose: 1.5 mg/kg/injection, schedule: Q01DX009 (ip), vehicle: other) 95 % of control and 104 % of control; (dose: 1.87 mg/kg/injection, schedule: Q01DX009 (ip), vehicle: saline) 115 % of control; (dose: 1.9 mg/kg/injection, schedule: Q01DX001 (ip), vehicle: saline) 115 % of control; (dose: 2.0 mg/kg/injection, schedule: Q01DX009 (ip), vehicle: saline + alcohol) 109 % of control and 118 % of control; (dose: 2.0 mg/kg/injection, schedule: Q01DX009 (ip), vehicle: saline with Tween-80) 109 % of control and 115 % of control and 122 % of control; (dose: 2.0 mg/kg/injection, schedule: Q04DX003 (ip), vehicle: saline + alcohol) 118 % of control. In addition, the T/C is, setting by setting: (dose: 3.0 mg/kg/injection, schedule: Q01DX009 (ip), vehicle: other) 105 % of control and 114 % of control; (dose: 3.75 mg/kg/injection, schedule: Q01DX001 (ip), vehicle: saline) 115 % of control; (dose: 4.0 mg/kg/injection, schedule: Q01DX009 (ip), vehicle: saline with Tween-80) 152 % of control; (dose: 5.0 mg/kg/injection, schedule: Q01DX001 (ip), vehicle: saline + alcohol) 111 % of control and 122 % of control; (dose: 5.0 mg/kg/injection, schedule: Q01DX009 (ip), vehicle: other) 190 % of control; (dose: 5.0 mg/kg/injection, schedule: Q04DX003 (ip), vehicle: saline + alcohol) 113 % of control and 115 % of control. Also, the T/C by setting is: (dose: 6.0 mg/kg/injection, schedule: Q01DX009 (ip), vehicle: alcohol) 160 % of control and 188 % of control; (dose: 6.0 mg/kg/injection, schedule: Q01DX009 (ip), vehicle: other) 171 % of control and 179 % of control; (dose: 7.5 mg/kg/injection, schedule: Q01DX001 (ip), vehicle: saline) 119 % of control; (dose: 7.5 mg/kg/injection, schedule: Q01DX009 (ip), vehicle: saline) 192 % of control; (dose: 8.0 mg/kg/injection, schedule: Q01DX001 (ip), vehicle: saline + alcohol) 107 % of control; (dose: 8.0 mg/kg/injection, schedule: Q01DX009 (ip), vehicle: saline + alcohol) 207 % of control and 221 % of control. Further, the T/C is, setting by setting: (dose: 8.0 mg/kg/injection, schedule: Q01DX009 (ip), vehicle: saline with Tween-80) 165 % of control and 168 % of control and 183 % of control; (dose: 8.0 mg/kg/injection, schedule: Q04DX003 (ip), vehicle: saline + alcohol) 111 % of control; (dose: 10.0 mg/kg/injection, schedule: Q01DX001 (ip), vehicle: saline) 121 % of control; (dose: 12.0 mg/kg/injection, schedule: Q01DX009 (ip), vehicle: other) 153 % of control; (dose: 15.0 mg/kg/injection, schedule: Q01DX009 (ip), vehicle: saline) 200 % of control; (dose: 16.0 mg/kg/injection, schedule: Q01DX009 (ip), vehicle: saline + alcohol) 53 % of control and 65 % of control. Besides, the T/C reads like this: (dose: 16.0 mg/kg/injection, schedule: Q04DX003 (ip), vehicle: saline + alcohol) 186 % of control; (dose: 20.0 mg/kg/injection, schedule: Q01DX001 (ip), vehicle: saline) 154 % of control; (dose: 20.0 mg/kg/injection, schedule: Q04DX003 (ip), vehicle: saline + alcohol) 157 % of control and 210 % of control and 229 % of control; (dose: 30.0 mg/kg/injection, schedule: Q01DX001 (ip), vehicle: saline + alcohol) 154 % of control; (dose: 30.0 mg/kg/injection, schedule: Q01DX001 (ip), vehicle: saline) 189 % of control; (dose: 32.0 mg/kg/injection, schedule: Q01DX009 (ip), vehicle: saline + alcohol) 40 % of control and 44 % of control. For the same compound, the T/C reads like this: (dose: 32.0 mg/kg/injection, schedule: Q04DX003 (ip), vehicle: saline + alcohol) 248 % of control; (dose: 40.0 mg/kg/injection, schedule: Q01DX001 (ip), vehicle: saline) 207 % of control; (dose: 40.0 mg/kg/injection, schedule: Q04DX003 (ip), vehicle: saline + alcohol) 62 % of control and 80 % of control; (dose: 60.0 mg/kg/injection, schedule: Q01DX001 (ip), vehicle: saline) 106 % of control; (dose: 64.0 mg/kg/injection, schedule: Q01DX001 (ip), vehicle: saline + alcohol) 42 % of control; (dose: 64.0 mg/kg/injection, schedule: Q01DX009 (ip), vehicle: saline + alcohol) 28 % of control and 30 % of control. Moreover, the T/C runs as follows: (dose: 64.0 mg/kg/injection, schedule: Q04DX003 (ip), vehicle: saline + alcohol) 43 % of control; (dose: 128.0 mg/kg/injection, schedule: Q04DX003 (ip), vehicle: saline + alcohol) 37 % of control; (dose: 256.0 mg/kg/injection, schedule: Q04DX003 (ip), vehicle: saline + alcohol) 20 % of control.
As for `COc1ccc(C(=S)N2CCN(c3ccccc3)CC2)cc1`, the T/C (dose: 12.5 mg/kg/injection, schedule: Q01DX009 (ip), vehicle: saline with Tween-80) is 87 % of control; the T/C (dose: 50.0 mg/kg/injection, schedule: Q01DX009 (ip), vehicle: saline with Tween-80) is 99 % of control; the T/C under setting [3] was 87 % of control.
Take `CN1c2c(nc(N)[nH]c2=O)NCC1CCNc1ccc(C(=O)NC(CCC(=O)O)C(=O)O)cc1` (stereo unspecified): the T/C (dose: 25.0 mg/kg/injection, schedule: Q01DX009 (ip), vehicle: Klucel (hydroxypropylcellulose) (HPC)) is 106 % of control; the T/C under setting [4] was 103 % of control; the T/C (dose: 50.0 mg/kg/injection, schedule: Q01DX009 (ip), vehicle: sodium bicarbonate) was 100 % of control; the T/C under setting [5] was 106 % of control; the T/C (dose: 100.0 mg/kg/injection, schedule: Q01DX009 (ip), vehicle: sodium bicarbonate) is 100 % of control; the T/C (dose: 200.0 mg/kg/injection, schedule: Q01DX009 (ip), vehicle: sodium bicarbonate) is 95 % of control. For the same compound, the T/C (dose: 400.0 mg/kg/injection, schedule: Q01DX009 (ip), vehicle: sodium bicarbonate) was 118 % of control.
On to `COc1ccc(-c2csc(=[N+]3CCCCC3)s2)cc1`, for which the T/C by setting is: (dose: 1.56 mg/kg/injection, schedule: Q01DX009 (ip), vehicle: water) 94 % of control and 95 % of control; (dose: 3.12 mg/kg/injection, schedule: Q01DX009 (ip), vehicle: water) 90 % of control and 101 % of control; (dose: 6.25 mg/kg/injection, schedule: Q01DX009 (ip), vehicle: water) 101 % of control and 102 % of control; (dose: 12.5 mg/kg/injection, schedule: Q01DX009 (ip), vehicle: water) 103 % of control and 109 % of control; (dose: 25.0 mg/kg/injection, schedule: Q01DX009 (ip), vehicle: water) 86 % of control and 110 % of control.
`O=C1NC(c2ccccc2Cl)Nc2ccccc21` (stereo unspecified): the T/C is 103 % of control under setting [4]; 98 % of control under setting [5]; 98 % of control (dose: 200.0 mg/kg/injection, schedule: Q01DX009 (ip), vehicle: Klucel (hydroxypropylcellulose) (HPC)); 108 % of control (dose: 400.0 mg/kg/injection, schedule: Q01DX009 (ip), vehicle: Klucel (hydroxypropylcellulose) (HPC)).
For `CC1(C)N=C(N)N=C(N)N1c1cccc(CNC(=O)Nc2cccc(S(=O)(=O)F)c2)c1`, the T/C (dose: 50.0 mg/kg/injection, schedule: Q01DX009 (ip), vehicle: saline) was 101 % of control.
With `CCOC(=O)CCCc1c[nH]c2ccccc12`, the T/C was 107 % of control (dose: 100.0 mg/kg/injection, schedule: Q01DX009 (ip), vehicle: saline with Tween-80); 109 % of control (dose: 100.0 mg/kg/injection, schedule: Q04DX003 (ip), vehicle: saline with Tween-80); 115 % of control under setting [3]; 93 % of control (dose: 200.0 mg/kg/injection, schedule: Q04DX003 (ip), vehicle: saline with Tween-80); 107 % of control (dose: 400.0 mg/kg/injection, schedule: Q01DX009 (ip), vehicle: saline with Tween-80); 95 % of control (dose: 400.0 mg/kg/injection, schedule: Q04DX003 (ip), vehicle: saline with Tween-80).
Regarding `COc1cc2c(c(OC)c1OC)-c1ccc(OC)c(=O)cc1[C@@H](NC(=O)CCl)CC2`, the T/C was 154 % of control under setting [1] and 161 % of control under setting [2].
Consider `CCOC(=O)C(=Cc1ccc(Cl)cc1)C(=O)OCC`, for which the T/C reads like this: (dose: 12.5 mg/kg/injection, schedule: Q01DX009 (ip), vehicle: Klucel (hydroxypropylcellulose) (HPC)) 94 % of control; under setting [4], 94 % of control; under setting [5], 89 % of control.

The values are drawn from PubChem BioAssay AID192 (DTP/NCI, 2004).
